US8435976B2, “4-substituted pyridin-3-yl-carboxamide compounds and methods of use” (F. Hoffmann-La Roche, priority 2009, dated 2013)
Like-named read-outs stand apart in the source and are kept apart here.

Key:
[1] = molecular target: BaF3 PIM1 cells (Homo sapiens, UniProt P11309); test: BaF3 PIM1 cell proliferation (Cell Titer Glo); format: cell-based
[2] = system: BaF3 parental cells; test: BaF3 parental cell proliferation (Cell Titer Glo); format: cell-based; details: Mus musculus, Table 3
Description: BaF3 parental line was obtained from the DSMZ repository. BaF3 lines transfected with PIM1 or PIM2 were generated. Mouse IL-3 was purchased from R&D Systems. G418 was purchased from Clontech. Media for BaF3 parental line contained RPMI, 10% FBS, 2 mM L-Glutamine, 2 ng/mL mIL-3. Media for BaF3 PIM1 & 2 lines contained RPMI, 10% FBS, 2 mM L-Glutamine, […]. Media for MM1.S line contained RPMI, 10% FBS, 2 mM L-Glutamine.
BaF3 parental cells, BaF3 PIM1 cells, BaF3 PIM2 cells, and MM1.S cells were seeded at 2 k/well, 5 k/well, 5 k/well, and 10 k/well respectively, in a 384-well plate, at 45 μL/well. Test compound was added at 5 μL/well. BaF3 cells (parental and transfected) were incubated overnight, while MM1.S cells were incubated for 72 hours at 37° C., 5% CO2. Cell Titer Glo Reagent (Promega) was added at 50 μL/well, the plates were incubated for 30 minutes, and their luminescence read on an HT Analyst. IC50/EC50 values for the test compound were calculated.

[3] = system: EOL-1; test: EOL-1 cell assay; format: cell-based; details: Homo sapiens, EOL1; Table 3
[4] = system: prostate cancer cell line PC3; test: Cell Titer Glo proliferation and survival assay, PC3; format: cell-based; details: PC3, FIG. 5
Text: The results obtained here are representative of a subset of prostate cell lines tested.

[5] = system: syngeneic A20 lymphoma tumors; test: Syngeneic A20 lymphoma tumor model; format: in vivo, Balb/c mice; details: Compound 3 25 and 50 mg/kg or Formula A 75 mg/kg po qd x21
Description: The efficacy of the combinations of the invention may be measured in vivo by implanting allografts or xenografts of cancer cells in rodents and treating the tumor-bearing animals with the combinations. […] Subject mice were treated with drug(s) or control (Vehicle) and monitored over several weeks or more to measure the time to tumor doubling, log cell kill, and tumor inhibition.
Dosing of all cohorts commenced on Day 0 when the mean tumor volume of all cohorts was between […]. […] At the conclusion of this study, femurs were collected and histological analysis of the bone marrow was conducted, and peripheral blood was collected for determination of blood cell counts.

[6] = system: multiple myeloma cell line KMS11; test: Cell Titer Glo proliferation and survival assay, KMS11 and other multiple myeloma cell lines; format: cell-based; details: Homo sapiens, KMS-11; single agent; ten multiple myeloma cell lines tested; read-out: IC50 against myeloma cell lines, single agent
Text: The results obtained here are representative of a total of ten multiple myeloma cell lines tested.

[7] = system: MM1.S cells; test: MM1.S cell proliferation, 72 hours (Cell Titer Glo); format: cell-based; details: Homo sapiens
Summary of the method: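 BaF3 parental cells (2 k/well, with 2 ng/mL mIL-3) were treated overnight, and MM1.S cells (10 k/well) were treated for 72 h at 37 °C. Viability was read by CellTiter-Glo luminescence. IC50/EC50 values were calculated from the luminescence data.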

[8] = system: multiple myeloma cell line MM.1S; test: MM.1S 3 day proliferation assay, single agents and combinations (Cell-Titer Glo); format: cell-based; details: FIG. 1
Description: The in vitro potency of the combinations of formula I compounds with chemotherapeutic agents was measured by the cell proliferation assay of Example 11 and the results are compiled in Example iii. The CellTiter-Glo® Luminescent Cell Viability Assay (commercially available from Promega Corp., Madison, Wis.) is a homogeneous assay method based on the recombinant expression of Coleoptera luciferase (U.S. Pat. No. 5,583,024; U.S. Pat. No. 5,674,713; U.S. Pat. No. 5,700,670) and determines the number of viable cells in culture based on quantitation of the ATP present, an indicator of metabolically active cells (Crouch et al (1993) J. Immunol. Meth. 160:81-88; U.S. Pat. No. 6,602,677). The CellTiter-Glo® Assay was conducted in 96 or 384 well format, making it amenable to automated high-throughput screening (HTS) (Cree et al (1995) AntiCancer Drugs 6:398-404). The homogeneous assay procedure involves adding the single reagent (CellTiter-Glo® Reagent) directly to cells cultured in serum-supplemented medium. Cell washing, removal of medium and multiple pipetting steps are not required. The system detects as few as 15 cells/well in a 384-well format in 10 minutes after adding reagent and mixing.
The homogeneous “add-mix-measure” format results in cell lysis and generation of a luminescent signal proportional to the amount of ATP present. […] Viable cells are reflected in relative luminescence units (RLU). […] Data can be recorded by luminometer or CCD camera imaging device. The luminescence output is presented as relative light units (RLU), measured over time.
The combination index (CI) score is calculated by the Chou and Talalay method (Chou, T. and Talalay, P. (1984) Adv. Enzyme Regul. 22:27-55). […] The strength of synergy is assessed according to Chou and Talalay. […]
The in vitro cell survival and proliferation assay (Cell-Titer Glo, Promega) measured viable cells over varying inhibitor concentrations (10^−3 to 10 μMolar, Relative Units, wherein a Relative Unit equals 0.3 micromolar for Compound 3, 0.3 micromolar for Formula A, and 0.1 micromolar for Formula B). […]

Sequence of BaF3 PIM1 cells (P11309 whole entry, change not shown): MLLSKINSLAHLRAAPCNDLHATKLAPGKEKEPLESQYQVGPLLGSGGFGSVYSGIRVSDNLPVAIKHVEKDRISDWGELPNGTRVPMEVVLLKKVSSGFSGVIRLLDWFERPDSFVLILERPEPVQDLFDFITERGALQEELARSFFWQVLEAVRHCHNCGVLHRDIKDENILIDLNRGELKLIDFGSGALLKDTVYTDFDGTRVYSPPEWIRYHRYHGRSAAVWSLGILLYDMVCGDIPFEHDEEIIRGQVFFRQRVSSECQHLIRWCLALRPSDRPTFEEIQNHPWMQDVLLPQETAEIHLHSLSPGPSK

Nc1sc(-c2c(F)cccc2F)nc1C(=O)Nc1cnccc1N1CCC[C@H](N)C1 [Example 3, (S)-5-amino-N-(4-(3-aminopiperidin-1-yl)pyridin-3-yl)-2-(2,6-difluorophenyl)thiazole-4-carboxamide]
GI50 ([1]; Table 3, read-out: BaF3-Pim1): 10 nM
GI50 ([1]; incubated overnight, read-out: Prolif BaF3_PIM1 (IC50)): 13.5 nM
IC50 [2]: 8000 nM
IC50 [3]: 10 nM
single agent activity, PC3 [4]: little activity
effect on tumor growth, single agents [5]: no significant effect on tumor growth
IC50 [6]: 100 to 500 nM
EC50 ([7]; 72 hours, read-out: Prolif MM1S ATP (EC50)): 49.7 nM
EC50 ([7]; Table 3, read-out: MM1.s): 200 nM
lowest level reached by dose-response curve, of control value [8]: does not fully reach 0% of the control value
